Assay [1] concerns the target Epidermal growth factor receptor (Homo sapiens) (UniProt P00533). The assay is described as follows: Inhibition of human EGFR catalytic domain expressed in baculovirus assessed as substrate phosphorylation using fluorescence-labelled peptides as substrate at 420 uM after 90 mins by microfluidic peptide phosphorylation assay.
The target of assay [2] is Tyrosine-protein kinase HCK (Homo sapiens) (UniProt P08631). In words: Inhibition of human HCK catalytic domain expressed in baculovirus assessed as substrate phosphorylation using fluorescence-labelled peptides as substrate at 420 uM after 90 mins by microfluidic peptide phosphorylation assay.
Assay [3] has as its target T1, Cytoplasmic tyrosine-protein kinase BMX (Homo sapiens) (UniProt P51813).
T1 sequence (whole entry): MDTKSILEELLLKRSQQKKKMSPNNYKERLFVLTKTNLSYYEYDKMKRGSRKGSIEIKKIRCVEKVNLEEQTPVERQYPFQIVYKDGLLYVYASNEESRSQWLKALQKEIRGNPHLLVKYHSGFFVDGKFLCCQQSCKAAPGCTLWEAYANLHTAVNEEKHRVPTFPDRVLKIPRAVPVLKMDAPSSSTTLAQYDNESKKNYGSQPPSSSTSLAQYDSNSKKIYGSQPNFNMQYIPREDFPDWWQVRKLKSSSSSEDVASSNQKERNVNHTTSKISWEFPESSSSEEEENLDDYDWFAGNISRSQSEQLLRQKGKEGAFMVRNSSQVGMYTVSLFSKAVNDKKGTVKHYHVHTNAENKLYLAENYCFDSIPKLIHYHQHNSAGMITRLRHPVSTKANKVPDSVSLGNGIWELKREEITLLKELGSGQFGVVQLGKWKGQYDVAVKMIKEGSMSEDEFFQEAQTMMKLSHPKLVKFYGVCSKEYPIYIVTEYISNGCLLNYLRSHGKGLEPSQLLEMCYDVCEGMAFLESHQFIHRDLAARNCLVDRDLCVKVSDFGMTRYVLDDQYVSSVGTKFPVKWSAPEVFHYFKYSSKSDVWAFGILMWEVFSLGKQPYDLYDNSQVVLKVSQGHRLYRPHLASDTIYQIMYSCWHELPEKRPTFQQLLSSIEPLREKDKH
In words: Inhibition of human full length BMX expressed in baculovirus assessed as substrate phosphorylation using fluorescence-labelled peptides as substrate at 420 uM after 90 mins by microfluidic peptide phosphorylation assay.

Assay [4] addresses Fibroblast growth factor receptor 1 (Homo sapiens) (UniProt P11362). The assay is described as follows: Inhibition of human FGFR1 catalytic domain expressed in baculovirus assessed as substrate phosphorylation using fluorescence-labelled peptides as substrate at 0.1 uM after 90 mins by microfluidic peptide phosphorylation assay.
In assay [5] the target is T2, Inhibitor of nuclear factor kappa-B kinase subunit beta (Homo sapiens) (UniProt O14920).
T2 sequence (whole entry): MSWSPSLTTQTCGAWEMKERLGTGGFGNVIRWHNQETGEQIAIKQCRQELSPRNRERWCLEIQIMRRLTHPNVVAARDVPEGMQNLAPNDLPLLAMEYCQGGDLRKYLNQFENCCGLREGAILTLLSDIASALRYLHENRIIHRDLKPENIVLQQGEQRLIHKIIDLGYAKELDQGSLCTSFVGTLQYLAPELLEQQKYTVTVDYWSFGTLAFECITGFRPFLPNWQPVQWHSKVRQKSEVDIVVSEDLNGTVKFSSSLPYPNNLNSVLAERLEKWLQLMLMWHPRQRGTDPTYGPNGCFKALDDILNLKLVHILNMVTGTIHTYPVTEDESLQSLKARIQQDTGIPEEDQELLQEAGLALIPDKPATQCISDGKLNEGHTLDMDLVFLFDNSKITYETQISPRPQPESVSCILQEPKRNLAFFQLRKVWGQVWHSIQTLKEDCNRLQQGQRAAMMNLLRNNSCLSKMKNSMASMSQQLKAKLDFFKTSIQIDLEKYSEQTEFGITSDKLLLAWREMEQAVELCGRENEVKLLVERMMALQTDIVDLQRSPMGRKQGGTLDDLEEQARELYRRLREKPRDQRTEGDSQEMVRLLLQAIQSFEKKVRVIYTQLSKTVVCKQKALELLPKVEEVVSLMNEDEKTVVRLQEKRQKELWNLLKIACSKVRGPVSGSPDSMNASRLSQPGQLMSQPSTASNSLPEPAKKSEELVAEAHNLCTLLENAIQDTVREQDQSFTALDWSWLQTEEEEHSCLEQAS
In words: Inhibition of human full length IKK beta expressed in baculovirus assessed as substrate phosphorylation using fluorescence-labelled peptides as substrate at 0.1 uM after 90 mins by microfluidic peptide phosphorylation assay.

Assay [6] relates to Fibroblast growth factor receptor 2 (Homo sapiens), P21802 [N549H]. The assay is described as follows: Inhibition of human FGFR2 N549H mutant catalytic domain expressed in baculovirus assessed as substrate phosphorylation using fluorescence-labelled peptides as substrate at 0.06 uM after 90 mins by microfluidic peptide phosphorylation assay.
In assay [7] the target is Fibroblast growth factor receptor 2 (Homo sapiens) (UniProt P21802). In words: Inhibition of human FGFR2 catalytic domain expressed in baculovirus assessed as substrate phosphorylation using fluorescence-labelled peptides as substrate at 0.06 uM after 90 mins by microfluidic peptide phosphorylation assay.
Assay [8] addresses Ribosomal protein S6 kinase alpha-3 (Homo sapiens) (UniProt P51812). In words: Inhibition of human full length RSK2 expressed in baculovirus assessed as substrate phosphorylation using fluorescence-labelled peptides as substrate at 0.2 uM after 90 mins by microfluidic peptide phosphorylation assay.
Assay [9] has as its target T3, Testis-specific serine/threonine-protein kinase 1 (Homo sapiens) (UniProt Q9BXA7).
T3 sequence (whole entry): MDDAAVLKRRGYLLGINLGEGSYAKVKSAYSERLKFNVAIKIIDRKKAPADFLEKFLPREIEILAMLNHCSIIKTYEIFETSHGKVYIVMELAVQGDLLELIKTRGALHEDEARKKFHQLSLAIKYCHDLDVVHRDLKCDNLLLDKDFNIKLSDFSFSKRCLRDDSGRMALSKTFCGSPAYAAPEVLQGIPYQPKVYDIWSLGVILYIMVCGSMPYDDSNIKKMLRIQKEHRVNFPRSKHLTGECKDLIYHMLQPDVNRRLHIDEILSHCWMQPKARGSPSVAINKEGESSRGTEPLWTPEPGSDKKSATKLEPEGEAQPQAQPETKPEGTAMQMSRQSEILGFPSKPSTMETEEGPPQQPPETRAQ
The assay is described as follows: Inhibition of human full length TSSK1 expressed in baculovirus assessed as substrate phosphorylation using fluorescence-labelled peptides as substrate at 0.2 uM after 90 mins by microfluidic peptide phosphorylation assay.

The subject of assay [10] is Tyrosine-protein kinase ABL1 (Homo sapiens), P00519 [T315I]. In words: Inhibition of human truncated ABL T315I mutant expressed in baculovirus assessed as substrate phosphorylation using fluorescence-labelled peptides as substrate at 70 uM after 90 mins by microfluidic peptide phosphorylation assay.
The target in assay [11] is Aurora kinase B (Homo sapiens) (UniProt Q96GD4). The assay is described as follows: Inhibition of human full length AurB expressed in baculovirus assessed as substrate phosphorylation using fluorescence-labelled peptides as substrate at 70 uM after 90 mins by microfluidic peptide phosphorylation assay.
In assay [12] the target is Ribosomal protein S6 kinase alpha-5 (Homo sapiens) (UniProt O75582). The assay is described as follows: Inhibition of human full length MSK1 expressed in baculovirus assessed as substrate phosphorylation using fluorescence-labelled peptides as substrate at 2 uM after 90 mins by microfluidic peptide phosphorylation assay.
Ribosomal protein S6 kinase alpha-5 (Homo sapiens), sequence (O75582 whole entry, looked up): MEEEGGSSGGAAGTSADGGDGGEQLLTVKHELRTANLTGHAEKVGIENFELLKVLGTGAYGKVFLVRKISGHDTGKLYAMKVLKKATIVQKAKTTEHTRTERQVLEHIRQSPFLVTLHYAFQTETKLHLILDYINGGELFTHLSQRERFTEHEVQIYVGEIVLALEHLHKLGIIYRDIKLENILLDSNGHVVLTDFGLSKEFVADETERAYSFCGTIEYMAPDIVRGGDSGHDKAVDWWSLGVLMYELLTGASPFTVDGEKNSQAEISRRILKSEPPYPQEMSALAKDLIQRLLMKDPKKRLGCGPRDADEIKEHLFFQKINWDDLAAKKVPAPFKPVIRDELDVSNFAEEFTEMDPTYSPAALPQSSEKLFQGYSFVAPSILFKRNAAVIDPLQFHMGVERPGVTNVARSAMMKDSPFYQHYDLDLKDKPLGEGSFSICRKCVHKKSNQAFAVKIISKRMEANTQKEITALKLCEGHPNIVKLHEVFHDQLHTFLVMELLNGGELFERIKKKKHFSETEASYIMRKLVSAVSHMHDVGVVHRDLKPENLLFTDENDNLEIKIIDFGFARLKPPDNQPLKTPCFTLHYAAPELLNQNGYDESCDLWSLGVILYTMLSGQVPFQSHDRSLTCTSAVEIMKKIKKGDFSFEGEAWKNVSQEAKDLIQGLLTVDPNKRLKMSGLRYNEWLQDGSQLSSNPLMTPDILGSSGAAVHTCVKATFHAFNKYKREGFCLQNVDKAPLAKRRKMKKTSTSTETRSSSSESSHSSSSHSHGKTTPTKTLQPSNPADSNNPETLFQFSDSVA

Ribosomal protein S6 kinase alpha-3 (Homo sapiens), sequence (P51812 whole entry): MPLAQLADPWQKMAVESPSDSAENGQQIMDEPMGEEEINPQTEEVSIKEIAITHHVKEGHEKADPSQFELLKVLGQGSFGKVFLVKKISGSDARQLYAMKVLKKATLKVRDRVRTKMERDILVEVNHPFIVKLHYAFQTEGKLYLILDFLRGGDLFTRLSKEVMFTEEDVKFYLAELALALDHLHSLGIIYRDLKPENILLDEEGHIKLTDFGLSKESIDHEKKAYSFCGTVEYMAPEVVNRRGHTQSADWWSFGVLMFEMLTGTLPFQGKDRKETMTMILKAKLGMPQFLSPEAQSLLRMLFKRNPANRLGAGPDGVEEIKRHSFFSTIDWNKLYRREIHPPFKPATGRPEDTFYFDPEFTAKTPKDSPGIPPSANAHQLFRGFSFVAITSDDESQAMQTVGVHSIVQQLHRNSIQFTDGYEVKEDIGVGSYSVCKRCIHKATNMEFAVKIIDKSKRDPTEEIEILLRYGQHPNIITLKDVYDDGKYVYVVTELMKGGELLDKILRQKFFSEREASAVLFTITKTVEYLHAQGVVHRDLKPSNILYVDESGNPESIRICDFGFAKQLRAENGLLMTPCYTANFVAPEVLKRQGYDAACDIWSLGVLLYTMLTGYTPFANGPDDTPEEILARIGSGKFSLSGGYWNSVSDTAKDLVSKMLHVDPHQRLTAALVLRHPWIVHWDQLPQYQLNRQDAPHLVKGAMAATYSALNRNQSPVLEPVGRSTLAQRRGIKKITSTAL
Fibroblast growth factor receptor 1 (Homo sapiens), sequence (P11362 22-822 limits assumed): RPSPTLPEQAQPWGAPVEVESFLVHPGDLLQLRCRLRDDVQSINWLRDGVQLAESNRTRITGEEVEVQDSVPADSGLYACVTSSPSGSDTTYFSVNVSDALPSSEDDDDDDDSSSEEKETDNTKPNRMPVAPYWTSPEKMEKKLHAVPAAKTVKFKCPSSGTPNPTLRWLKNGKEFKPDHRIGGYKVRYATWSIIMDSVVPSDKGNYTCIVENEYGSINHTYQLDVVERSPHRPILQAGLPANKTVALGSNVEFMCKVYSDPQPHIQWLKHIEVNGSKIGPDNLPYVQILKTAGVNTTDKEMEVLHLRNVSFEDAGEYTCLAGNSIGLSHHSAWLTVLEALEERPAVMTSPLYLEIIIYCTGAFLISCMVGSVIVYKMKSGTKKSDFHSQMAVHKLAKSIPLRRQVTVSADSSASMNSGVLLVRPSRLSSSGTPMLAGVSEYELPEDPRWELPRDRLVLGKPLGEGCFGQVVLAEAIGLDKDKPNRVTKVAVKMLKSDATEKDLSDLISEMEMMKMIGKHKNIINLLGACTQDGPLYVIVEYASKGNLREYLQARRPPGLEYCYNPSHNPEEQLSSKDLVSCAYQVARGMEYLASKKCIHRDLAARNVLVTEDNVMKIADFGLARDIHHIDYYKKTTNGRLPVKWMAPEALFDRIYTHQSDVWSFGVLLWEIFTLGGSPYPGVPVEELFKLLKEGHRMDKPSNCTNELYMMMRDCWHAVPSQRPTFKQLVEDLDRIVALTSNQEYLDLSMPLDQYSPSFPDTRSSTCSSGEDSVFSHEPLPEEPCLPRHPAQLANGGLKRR
Fibroblast growth factor receptor 2 (Homo sapiens), sequence (P21802 22-821 limits assumed): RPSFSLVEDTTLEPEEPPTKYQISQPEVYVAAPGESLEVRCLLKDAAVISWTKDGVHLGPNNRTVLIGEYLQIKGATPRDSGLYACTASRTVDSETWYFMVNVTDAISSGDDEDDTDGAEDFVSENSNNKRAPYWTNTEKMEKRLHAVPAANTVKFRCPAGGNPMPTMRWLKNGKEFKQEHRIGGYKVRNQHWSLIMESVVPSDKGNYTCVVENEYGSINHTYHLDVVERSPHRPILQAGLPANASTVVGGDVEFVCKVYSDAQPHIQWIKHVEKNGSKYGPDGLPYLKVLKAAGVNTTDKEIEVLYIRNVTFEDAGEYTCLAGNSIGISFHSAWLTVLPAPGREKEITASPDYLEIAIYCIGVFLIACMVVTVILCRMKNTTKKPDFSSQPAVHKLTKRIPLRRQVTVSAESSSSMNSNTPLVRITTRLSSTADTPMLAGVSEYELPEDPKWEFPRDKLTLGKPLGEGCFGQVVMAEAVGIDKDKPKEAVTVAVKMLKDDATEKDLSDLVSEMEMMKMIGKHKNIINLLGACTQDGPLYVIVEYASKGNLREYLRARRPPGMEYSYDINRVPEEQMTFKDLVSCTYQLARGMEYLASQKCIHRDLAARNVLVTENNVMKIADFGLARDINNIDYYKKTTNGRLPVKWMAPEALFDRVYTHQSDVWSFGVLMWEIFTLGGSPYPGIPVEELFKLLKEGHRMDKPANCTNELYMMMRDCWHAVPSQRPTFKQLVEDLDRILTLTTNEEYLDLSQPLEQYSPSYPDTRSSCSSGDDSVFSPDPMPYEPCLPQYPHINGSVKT
Fibroblast growth factor receptor 2 (Homo sapiens), P21802 [N549H], sequence (P21802 whole entry N549H, the tested form may be a part): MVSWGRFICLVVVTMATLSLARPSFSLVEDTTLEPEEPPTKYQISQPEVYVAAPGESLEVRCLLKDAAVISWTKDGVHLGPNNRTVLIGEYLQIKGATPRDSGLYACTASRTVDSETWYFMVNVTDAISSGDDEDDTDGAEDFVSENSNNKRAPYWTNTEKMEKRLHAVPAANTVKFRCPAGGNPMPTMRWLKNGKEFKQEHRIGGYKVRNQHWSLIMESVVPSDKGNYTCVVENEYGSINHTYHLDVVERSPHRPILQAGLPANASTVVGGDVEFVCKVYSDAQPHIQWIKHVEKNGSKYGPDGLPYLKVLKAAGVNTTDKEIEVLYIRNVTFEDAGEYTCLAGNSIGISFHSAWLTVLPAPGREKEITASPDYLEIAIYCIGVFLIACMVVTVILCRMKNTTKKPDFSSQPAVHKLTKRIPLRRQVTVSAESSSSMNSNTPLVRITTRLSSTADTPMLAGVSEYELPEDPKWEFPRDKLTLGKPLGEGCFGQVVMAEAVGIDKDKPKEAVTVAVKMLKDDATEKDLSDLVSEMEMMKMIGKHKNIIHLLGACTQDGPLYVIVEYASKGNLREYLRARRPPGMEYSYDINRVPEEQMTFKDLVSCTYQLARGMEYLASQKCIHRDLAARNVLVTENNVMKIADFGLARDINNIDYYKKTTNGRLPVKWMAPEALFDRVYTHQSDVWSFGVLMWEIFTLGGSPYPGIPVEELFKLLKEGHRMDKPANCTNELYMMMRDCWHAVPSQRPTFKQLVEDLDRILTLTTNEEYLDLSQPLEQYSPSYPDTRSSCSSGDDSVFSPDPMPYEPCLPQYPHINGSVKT
Aurora kinase B (Homo sapiens), sequence (Q96GD4 whole entry): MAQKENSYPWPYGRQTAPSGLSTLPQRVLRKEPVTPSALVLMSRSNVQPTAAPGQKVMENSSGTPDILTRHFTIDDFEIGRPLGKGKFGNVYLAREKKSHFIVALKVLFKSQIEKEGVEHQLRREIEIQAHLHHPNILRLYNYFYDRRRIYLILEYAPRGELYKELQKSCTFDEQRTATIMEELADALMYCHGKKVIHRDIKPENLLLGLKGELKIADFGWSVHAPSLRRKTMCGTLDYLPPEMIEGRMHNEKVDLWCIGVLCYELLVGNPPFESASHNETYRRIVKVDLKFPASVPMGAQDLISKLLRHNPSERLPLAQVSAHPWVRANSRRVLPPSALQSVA
Tyrosine-protein kinase HCK (Homo sapiens), sequence (P08631 2-526 limits assumed): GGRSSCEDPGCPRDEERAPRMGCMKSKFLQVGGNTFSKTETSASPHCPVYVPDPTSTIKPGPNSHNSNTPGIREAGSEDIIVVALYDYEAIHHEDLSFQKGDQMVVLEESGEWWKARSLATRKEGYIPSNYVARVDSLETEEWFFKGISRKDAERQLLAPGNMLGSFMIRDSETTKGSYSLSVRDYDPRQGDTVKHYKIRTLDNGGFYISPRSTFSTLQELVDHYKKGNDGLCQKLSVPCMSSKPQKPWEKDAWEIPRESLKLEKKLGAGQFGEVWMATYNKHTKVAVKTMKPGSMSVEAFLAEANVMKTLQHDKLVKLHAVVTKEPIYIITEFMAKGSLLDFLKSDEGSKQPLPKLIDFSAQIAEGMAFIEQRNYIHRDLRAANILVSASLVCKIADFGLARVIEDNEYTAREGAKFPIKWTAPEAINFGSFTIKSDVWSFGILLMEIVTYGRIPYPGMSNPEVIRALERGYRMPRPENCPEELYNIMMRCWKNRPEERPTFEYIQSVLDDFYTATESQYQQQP

With `c1nc(N2CCOCC2)c2nc[nH]c2n1`, the inhibition (in general, the percentage by which the read-out fell short of the control) in [1] was 29%; in assay [2], 69.5%; in assay [3], 62.5%.
Turning to `C[C@H](CN(C)C)Oc1nc(Nc2cc3cccc(Cl)c3cn2)cnc1C#N`, the inhibition was 2.5% in assay [4] and 3.5% in [5].
Consider `NC1(Cc2ccc(Cl)cc2)CCN(c2ncnc3[nH]ccc23)CC1`, for which the inhibition was found to be 5% in assay [6] and 0% in [7].
As to `Clc1ccc(C2(c3ccc(-c4ncnc5[nH]cnc45)cc3)CCNCC2)cc1`, the inhibition was 55% in assay [8] and 67% in assay [9].
Turning to `CNCc1ccc(-c2ncnc3[nH]cnc23)cc1`, the inhibition in [10] was found to be 22%; in [11] it was 85%.
With `NC1CCN(c2ncnc3[nH]ccc23)CC1`, the inhibition in assay [12] was 0.5%.

The record behind these values is ChEMBL document CHEMBL3132769, “Fragment growing to retain or alter the selectivity of anchored kinase hinge-binding fragments” (Medchemcomm, 2014).
